Assay results reported in ChEMBL document CHEMBL1142054, “QSAR-by-NMR: quantitative insights into structural determinants for binding affinity by analysis of 1H/15N chemical shift differences in MMP-3 ligands” (Bioorg Med Chem Lett, 2005).

Key:
[1] = target: T1, Stromelysin-1 (Homo sapiens, UniProt P08254); assay: (§1) Binding affinity for human Matrix metalloprotease-3
Target sequence in this assay (P08254 100-477 limits assumed): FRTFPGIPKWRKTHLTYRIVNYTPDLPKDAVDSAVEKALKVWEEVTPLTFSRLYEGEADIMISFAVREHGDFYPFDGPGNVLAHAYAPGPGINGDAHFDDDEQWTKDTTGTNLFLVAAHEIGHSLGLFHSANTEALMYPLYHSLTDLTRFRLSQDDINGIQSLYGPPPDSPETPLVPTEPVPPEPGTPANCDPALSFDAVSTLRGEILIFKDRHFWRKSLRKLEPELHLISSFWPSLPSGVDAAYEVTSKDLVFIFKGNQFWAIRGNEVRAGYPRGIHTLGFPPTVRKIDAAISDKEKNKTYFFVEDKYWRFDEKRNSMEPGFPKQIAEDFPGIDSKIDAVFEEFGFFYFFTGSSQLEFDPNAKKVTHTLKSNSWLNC

[2] = target: Neutrophil collagenase (Homo sapiens, UniProt P22894); assay: Binding affinity for human Matrix metalloprotease-8
Chain of Neutrophil collagenase (P22894 whole entry): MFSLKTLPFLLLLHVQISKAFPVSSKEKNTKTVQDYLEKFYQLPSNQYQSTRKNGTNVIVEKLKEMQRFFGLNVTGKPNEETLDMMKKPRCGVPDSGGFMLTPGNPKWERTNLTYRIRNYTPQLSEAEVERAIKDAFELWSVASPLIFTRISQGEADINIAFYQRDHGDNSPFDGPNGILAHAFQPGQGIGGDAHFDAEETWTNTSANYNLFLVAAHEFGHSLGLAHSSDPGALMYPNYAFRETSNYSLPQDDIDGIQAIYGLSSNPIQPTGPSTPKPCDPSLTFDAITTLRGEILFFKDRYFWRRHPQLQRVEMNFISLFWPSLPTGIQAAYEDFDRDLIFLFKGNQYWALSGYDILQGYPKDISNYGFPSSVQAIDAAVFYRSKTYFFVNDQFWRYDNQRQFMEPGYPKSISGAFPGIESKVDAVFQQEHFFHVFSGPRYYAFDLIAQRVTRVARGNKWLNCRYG

[3] = target: T1, Stromelysin-1; assay: as §1; remark: listed apart in the source
Target sequence in this assay (P08254 whole entry): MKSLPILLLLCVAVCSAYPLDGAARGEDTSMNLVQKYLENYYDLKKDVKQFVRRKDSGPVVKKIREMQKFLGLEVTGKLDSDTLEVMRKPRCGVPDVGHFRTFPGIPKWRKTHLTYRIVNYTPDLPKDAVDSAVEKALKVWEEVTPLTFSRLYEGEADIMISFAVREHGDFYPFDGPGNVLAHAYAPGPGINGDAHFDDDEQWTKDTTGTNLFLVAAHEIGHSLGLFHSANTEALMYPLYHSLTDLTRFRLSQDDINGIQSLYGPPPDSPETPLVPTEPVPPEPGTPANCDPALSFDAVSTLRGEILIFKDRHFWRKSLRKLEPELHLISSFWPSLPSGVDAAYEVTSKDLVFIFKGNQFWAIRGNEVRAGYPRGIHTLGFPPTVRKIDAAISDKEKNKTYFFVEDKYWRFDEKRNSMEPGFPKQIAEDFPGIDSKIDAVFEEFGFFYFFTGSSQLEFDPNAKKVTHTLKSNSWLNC

| SMILES | Concentration [1] | IC50 [2] | IC50 [3] |
| --- | --- | --- | --- |
| O=C(O)[C@H]1Cc2ccccc2CC1S(=O)(=O)c1ccc(Oc2ccccc2)cc1 (some centres not stated) | 200 nM |  |  |
| N#Cc1ccc(-c2ccc(S(=O)(=O)C3Cc4ccccc4C[C@@H]3C(=O)O)cc2)cc1 (some centres not stated) | 1000 nM |  |  |
| O=C(O)[C@H]1Cc2ccccc2CC1S(=O)(=O)c1ccc(CCc2ccccc2)cc1 (some centres not stated) | 50 nM |  |  |
| O=C(O)[C@H]1Cc2ccccc2CC1S(=O)(=O)c1ccc(F)cc1 (some centres not stated) | 400 nM |  |  |
| O=C(O)[C@H]1Cc2ccccc2CC1S(=O)(=O)c1ccc(-c2ccccc2)cc1 (some centres not stated) |  | 10 nM | 500 nM |
| O=C(O)[C@H]1Cc2ccccc2CC1S(=O)(=O)c1ccc(Cl)cc1 (some centres not stated) | 100 nM |  |  |
